Legend:
ST cells = assay: Cell Counting Kit 8 cytotoxicity assay in ST cells; type: cell-based, swine; conditions: PM at concentrations less than 30 mM, 24 h
Method: Fig 1 PM inhibits TGEV and PRCV infection in ST cells. (A) A cytotoxicity assay of PM in ST cells. ST cells cultured in a 96-well plate were incubated with different concentrations of PM for 24 h, which was tested by Cell Counting Kit 8. (B) Time course for PM inhibiting TGEV or PRCV or PEDV infection assay. (C–F) The ST cells, pretreated with PM at the indicated concentrations for 1 h were infected with TGEV Miller (0.1 MOI) or PRCV (0.1 MOI) for 1 h and were again treated with PM at 37°C for 17 h. The cell samples were collected and examined by real-time quantitative PCR (RT-qPCR), TCID50, western blot (C and D), and immunofluorescence assay (IFA) (E and F), scale bar: 50 µm. (G) Vero-E6 cells were treated with indicated PM and infected with PEDV LJX 01/2014 according to the time course of Fig. 1B, which was detected by TCID50 and western blot. Results are presented as mean ± SD of data from three independent experiments. ns, no significant; **, P ≤ 0.01; ***, P ≤ 0.001.
ST cells or intestinal organoids cultured in a 96-well plate were incubated with different concentrations of PM (0, 0.1, 0.25, 0.5, 1, 2.5, 5, 10, 20, and 30 mM) for 24 h. […] The absorbance of each well was then measured at 450 nm using a microplate reader to determine cell viability.

ATG14 = ATG14 expression in ST cells (western blot); type: cell-based, porcine; conditions: Fig. S8A, PM 10 mM, PRCV 0.1 MOI, 16 h
Method: Fig 7 PM degrades APN expression via activating PIK3C3-mediated autophagy. (A) Graphical representation for autophagy and the targets of different autophagy inhibitors. (B) ST cells were treated with PM (10 mM) in the presence and absence of 3-MA (20 mM), SBI0206965 (20 µM), and 3BDO (30 µM) for 16 h, and the APN expression was detected by western blot. (C) ST cells were treated with PM (10 mM) in the presence and absence of 3-MA (20 mM) for 16 h, and the APN, PIK3C3, ATG14, BECN1, P62, and LC3 were measured by western blot. (D) ST cells were transfected with PIK3C3 siRNA-1, PIK3C3 siRNA-2, PIK3C3 siRNA-3, PIK3C3 siRNA-4, and NC siRNA for 24 h, the PIK3C3 expression was detected by western blot. […] The APN, PIK3C3, ATG14, BECN1, P62, and LC3 were detected by western blot. […] (G) PIK3C3 was detected by western blot in WT ST cells and PIK3C3 KO ST cells. (H) WT ST cells and PIK3C3 KO ST cells were treated with PM (10 mM) for 16 h and then the APN, PIK3C3, ATG14, BECN1, P62, and LC3 were detected by western blot. […] The APN, PIK3C3, P62, and LC3 were detected by western blot. All western blot results were calculated by Image J. All experiments were performed in triplicate.
Fig. S8. […] Then the APN, PIK3C3, ATG14, BECN1, P62, PRCV N and LC3 were detected by western blot (A), and viral titers and PRCV N mRNA level were determined by TCID50 (B) and RT-qPCR (C) . […]

[K+].[K+].[O]=[Mo](=[O])([O-])[O-] [PM, potassium molybdate]
cytotoxicity (Cell Counting Kit 8) (ST cells): did not exhibit significant cytotoxicity | ATG14 level, western blot, relative to WT without PM (=1) (ATG14; PIK3C3 KO ST cells): 1.03 | ATG14 level, western blot, relative to WT without PM (=1) (ATG14; WT ST cells): 1.07
